Columns and labels:
Ikaros = Ikaros (Homo sapiens, UniProt Q13422+Q96SW2); assay: Helios Cellular Degradation Assay (Ikaros readout); format: cell-based; parameters: endogenous in cells; host or cells: Jurkat; conditions: Jurkat cells, 72 h incubation, Ikaros-Alexa488 antibody staining, flow cytometry; read-out: Ikaros Jurkat IC50
Protocol: (§1) Jurkat cells were plated at 80,000 cells/well in 40 μL RPMI+10% FBS in a 384 well cell culture plate prior to using acoustic dispensing technology for adding compound of interest. Cell cultures were incubated for 72 h at 37° C. and 5% C02. In order to facilitate analysis, cell cultures were spun down at 200 rpm for 5 min and the supernatant was discarded. After shaking the plate to dislodge the cell pellet, cells were resuspended in 50 μL of Fixation Buffer (eBioScience FoxP3 buffer set 00-5523-00) for 60 min at room temperature. After centrifuging and discarding the supernatant, cells were permeabilized with 50 μL of Permeabilization buffer (eBioScience FoxP3 buffer set 00-5523-00) for 10 min at room temperature. Following permeabilization, cells were spun down and the supernatant was replaced with 20 μL fluorescently labelled antibodies against Helios, Ikaros and Aiolos or corresponding Isotype controls in 1× Permeabilization buffer (Ikaros-Alexa488 [Biolegend, Cat #368408, 1:50], Helios-PE [CST, Cat #29360, 1:50], Aiolos-Alexa647 [Biolegend, Cat #371106Biolegend, 1:25]) and staining reactions were incubated for 1 h at room temperature; protected from light. Subsequently, 30 μL of 1× Permeabilization buffer was added prior to centrifuging the cells and discarding the supernatant. Stained cells were resuspended in 25 μL of flow cytometry staining buffer (PBS+0.2% BSA) and analyzed using an Intellicyt Ique Plus flow cytometer.

Helios = Helios (Homo sapiens, UniProt Q96SW2+Q9UKS7); assay: Helios Cellular Degradation Assay (Helios readout); format: cell-based; parameters: endogenous in cells; host or cells: Jurkat; conditions: Jurkat cells, 72 h incubation, Helios-PE antibody staining, flow cytometry; read-out: Helios Jurkat IC50
Helios, sequence (Q9UKS7 whole entry): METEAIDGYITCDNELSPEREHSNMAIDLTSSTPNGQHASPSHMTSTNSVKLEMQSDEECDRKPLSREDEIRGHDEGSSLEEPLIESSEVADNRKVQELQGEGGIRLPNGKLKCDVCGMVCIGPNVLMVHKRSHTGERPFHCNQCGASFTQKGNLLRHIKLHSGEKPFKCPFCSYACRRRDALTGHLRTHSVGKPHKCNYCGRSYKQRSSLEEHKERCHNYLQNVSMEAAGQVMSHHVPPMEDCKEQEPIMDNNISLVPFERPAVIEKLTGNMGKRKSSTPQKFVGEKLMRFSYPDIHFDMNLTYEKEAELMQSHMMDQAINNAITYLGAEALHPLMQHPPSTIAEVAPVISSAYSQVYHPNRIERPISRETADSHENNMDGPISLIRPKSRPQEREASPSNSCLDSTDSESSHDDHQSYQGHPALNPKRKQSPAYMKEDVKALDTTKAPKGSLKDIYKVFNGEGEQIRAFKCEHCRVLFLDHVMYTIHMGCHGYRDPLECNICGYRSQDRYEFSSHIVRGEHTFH
Helios, sequence (Q96SW2 whole entry): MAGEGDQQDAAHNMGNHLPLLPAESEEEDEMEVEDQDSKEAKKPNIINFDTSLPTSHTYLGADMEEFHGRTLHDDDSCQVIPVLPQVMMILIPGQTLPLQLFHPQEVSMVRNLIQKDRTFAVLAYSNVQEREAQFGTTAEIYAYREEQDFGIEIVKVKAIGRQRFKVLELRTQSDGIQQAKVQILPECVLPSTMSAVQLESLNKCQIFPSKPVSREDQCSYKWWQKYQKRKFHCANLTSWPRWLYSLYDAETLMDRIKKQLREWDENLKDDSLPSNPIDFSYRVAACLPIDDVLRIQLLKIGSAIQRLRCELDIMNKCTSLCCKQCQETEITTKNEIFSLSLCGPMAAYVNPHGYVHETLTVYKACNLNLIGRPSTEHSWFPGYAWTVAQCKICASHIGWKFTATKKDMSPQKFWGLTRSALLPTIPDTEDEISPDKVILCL
Helios, sequence (Q16531 whole entry partner): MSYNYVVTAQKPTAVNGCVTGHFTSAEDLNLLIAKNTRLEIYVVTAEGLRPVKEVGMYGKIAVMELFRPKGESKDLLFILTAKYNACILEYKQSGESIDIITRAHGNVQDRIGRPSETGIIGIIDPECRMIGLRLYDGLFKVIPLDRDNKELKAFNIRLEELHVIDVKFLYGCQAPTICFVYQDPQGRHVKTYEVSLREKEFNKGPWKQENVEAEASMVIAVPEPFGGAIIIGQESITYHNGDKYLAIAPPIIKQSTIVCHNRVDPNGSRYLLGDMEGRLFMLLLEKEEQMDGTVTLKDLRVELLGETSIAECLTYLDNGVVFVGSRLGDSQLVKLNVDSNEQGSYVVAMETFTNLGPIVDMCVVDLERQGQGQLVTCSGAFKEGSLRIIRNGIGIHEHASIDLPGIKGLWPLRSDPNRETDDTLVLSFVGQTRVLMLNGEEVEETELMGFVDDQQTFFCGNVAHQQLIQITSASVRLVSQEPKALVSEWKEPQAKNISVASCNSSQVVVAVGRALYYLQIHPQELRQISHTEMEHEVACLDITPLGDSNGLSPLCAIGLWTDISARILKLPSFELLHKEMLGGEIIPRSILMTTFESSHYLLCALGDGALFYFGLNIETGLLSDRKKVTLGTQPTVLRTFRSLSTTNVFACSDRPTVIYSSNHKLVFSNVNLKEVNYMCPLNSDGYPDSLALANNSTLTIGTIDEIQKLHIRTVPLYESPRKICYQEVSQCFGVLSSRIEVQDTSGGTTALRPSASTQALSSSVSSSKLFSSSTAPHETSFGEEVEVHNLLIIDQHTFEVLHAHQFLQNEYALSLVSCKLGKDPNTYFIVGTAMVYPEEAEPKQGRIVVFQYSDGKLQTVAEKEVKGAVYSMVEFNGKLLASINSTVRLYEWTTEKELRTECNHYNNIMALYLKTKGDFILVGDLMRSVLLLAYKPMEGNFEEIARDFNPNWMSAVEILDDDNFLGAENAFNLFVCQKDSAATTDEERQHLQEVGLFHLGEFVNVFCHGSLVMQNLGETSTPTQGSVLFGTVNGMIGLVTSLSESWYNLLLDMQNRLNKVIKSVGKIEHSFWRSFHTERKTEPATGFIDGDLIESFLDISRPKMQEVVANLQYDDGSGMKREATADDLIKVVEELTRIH
Protocol: as §1

Ikaros, sequence (Q13422 whole entry): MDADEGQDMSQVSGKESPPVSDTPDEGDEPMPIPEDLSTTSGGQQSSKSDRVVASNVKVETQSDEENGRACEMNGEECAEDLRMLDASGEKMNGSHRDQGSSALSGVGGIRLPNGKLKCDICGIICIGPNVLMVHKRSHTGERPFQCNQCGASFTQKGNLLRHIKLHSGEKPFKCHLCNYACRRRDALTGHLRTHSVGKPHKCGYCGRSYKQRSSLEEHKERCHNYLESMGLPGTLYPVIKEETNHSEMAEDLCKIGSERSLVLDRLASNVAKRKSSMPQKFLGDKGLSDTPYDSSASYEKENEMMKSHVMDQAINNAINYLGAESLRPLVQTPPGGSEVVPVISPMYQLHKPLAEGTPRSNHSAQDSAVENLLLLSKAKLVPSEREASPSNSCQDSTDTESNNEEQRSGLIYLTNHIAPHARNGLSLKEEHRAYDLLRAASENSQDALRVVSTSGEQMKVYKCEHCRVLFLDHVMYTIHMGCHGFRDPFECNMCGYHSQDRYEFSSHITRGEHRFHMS
Ikaros, sequence (Q96SW2 whole entry): as the sequence (Q96SW2 whole entry) above
Ikaros, sequence (Q16531 whole entry partner): as the sequence (Q16531 whole entry partner) above

| Structure (SMILES) | DC50 (Ikaros) [µM] | DC50 (Helios) [µM] |
| --- | --- | --- |
| Cc1cnc(-c2ccc3c(c2)CN(C2CCC(=O)NC2=O)C3=O)cc1C (centres unmarked) [Example 121, 3-(5-(4,5-dimethylpyridin-2-yl)-1-oxoisoindolin-2-yl)piperidine-2,6-dione] | 1.28 | 0.04 |
| Nc1cc(CCl)cc(-c2ccc3c(c2)CN(C2CCC(=O)NC2=O)C3=O)n1 (centres unmarked) [Example 135, 3-{5-[6-amino-4-(chloromethyl)pyridin-2-yl]-1-oxo-2,3-dihydro-1H-isoindol-2-yl}piperidine-2,6-dione] | ≥ 10 | 0.23 |
| Nc1ccc(Br)c(-c2ccc3c(c2)CN(C2CCC(=O)NC2=O)C3=O)n1 (centres unmarked) [Example 101, 3-(5-(6-amino-3-bromopyridin-2-yl)-1-oxoisoindolin-2-yl)piperidine-2,6-dione] | ≥ 20 | 0.47 |
| O=C1CCC(N2Cc3cc(-c4nccc(-c5cccnc5)n4)ccc3C2=O)C(=O)N1 (centres unmarked) [Example 72, 3-(1-oxo-5-(4-(pyridin-3-yl)pyrimidin-2-yl)isoindolin-2-yl)piperidine-2,6-dione] | > 20 | > 20 |
| NC(=O)c1cnc(-c2ccc3c(c2)CN(C2CCC(=O)NC2=O)C3=O)nc1N (centres unmarked) [Example 81, 4-amino-2-[2-(2,6-dioxopiperidin-3-yl)-1-oxo-2,3-dihydro-1H-isoindol-5-yl]pyrimidine-5-carboxamide] | > 20 | 3.9 |
| Nc1nc(-c2ccc3c(c2)CN(C2CCC(=O)NC2=O)C3=O)cc2c1CCCC2 (centres unmarked) [Example 150, 3-(5-(1-amino-5,6,7,8-tetrahydroisoquinolin-3-yl)-1-oxoisoindolin-2-yl)piperidine-2,6-dione] | ≥ 10 | 0.032 |
| O=C1CCC(N2Cc3cc(-c4nc5ccccc5nc4O)ccc3C2=O)C(=O)N1 (centres unmarked) [Example 96, 3-(5-(3-hydroxyquinoxalin-2-yl)-1-oxoisoindolin-2-yl)piperidine-2,6-dione] | ≥ 20 | 0.2 |
| CCOc1c(-c2ccc3c(c2)CN(C2CCC(=O)NC2=O)C3=O)ncc2ccccc12 (centres unmarked) [Example 85, 3-(5-(4-ethoxyisoquinolin-3-yl)-1-oxoisoindolin-2-yl)piperidine-2,6-dione] | 1.82 | 0.01 |
| O=C1CCC(N2Cc3cc(-c4ccc5cc(F)ccc5n4)ccc3C2=O)C(=O)N1 (centres unmarked) [Example 38, 3-[5-(6-fluoroquinolin-2-yl)-1-oxo-2,3-dihydro-1H-isoindol-2-yl]piperidine-2,6-dione] | > 20 | 0.022 |
| COc1cccc2ccc(-c3ccc4c(c3)CN(C3CCC(=O)NC3=O)C4=O)nc12 (centres unmarked) [Example 33, 3-[5-(8-methoxyquinolin-2-yl)-1-oxo-2,3-dihydro-1H-isoindol-2-yl]piperidine-2,6-dione] | > 20 | 0.12 |
| O=C1CCC(N2Cc3cc(-c4cc(C(=O)NC5CC5)c5ccccc5n4)ccc3C2=O)C(=O)N1 (centres unmarked) [Example 14, N-cyclopropyl-2-[2-(2,6-dioxopiperidin-3-yl)-1-oxo-2,3-dihydro-1H-isoindol-5-yl]quinoline-4-carboxamide] | > 20 | 0.4 |
| Nc1ccc([N+](=O)[O-])c(-c2ccc3c(c2)CN(C2CCC(=O)NC2=O)C3=O)n1 (centres unmarked) [Example 79, 3-[5-(6-Amino-3-nitropyridin-2-yl)-1-oxo-2,3-dihydro-1H-isoindol-2-yl]piperidine-2,6-dione] | > 20 | > 20 |
| Nc1cc(C(F)(F)F)cc(-c2ccc3c(c2)CN(C2CCC(=O)NC2=O)C3=O)n1 (centres unmarked) [Example 120, 3-(5-(6-amino-4-(trifluoromethyl)pyridin-2-yl)-1-oxoisoindolin-2-yl)piperidine-2,6-dione] | ≥ 10 | 0.07 |
| COc1cnc(-c2ccc3c(c2)CN(C2CCC(=O)NC2=O)C3=O)c2ccccc12 (centres unmarked) [Example 103, 3-(5-(4-methoxyisoquinolin-1-yl)-1-oxoisoindolin-2-yl)piperidine-2,6-dione] | ≥ 20 | 0.01 |
| Nc1cc(N2CCN(Cc3ccccc3)CC2)cc(-c2ccc3c(c2)CN(C2CCC(=O)NC2=O)C3=O)n1 (centres unmarked) [Example 184, 3-(5-(6-amino-4-(4-benzylpiperazin-1-yl)pyridin-2-yl)-1-oxoisoindolin-2-yl) piperidine-2,6-dione] | ≥ 10 | ≥ 10 |
| O=C1CCC(N2Cc3cc(-c4ccc5ccc(Cl)cc5n4)ccc3C2=O)C(=O)N1 (centres unmarked) [Example 28, 3-[5-(7-chloroquinolin-2-yl)-1-oxo-2,3-dihydro-1H-isoindol-2-yl]piperidine-2,6-dione] | > 20 | 0.057 |

| Structure (SMILES) | DC50 (Ikaros) [µM] | DC50 (Helios) [µM] |
| --- | --- | --- |
| COc1cc(C#N)c(N)nc1-c1ccc2c(c1)CN(C1CCC(=O)NC1=O)C2=O (centres unmarked) [Example 181, 2-amino-6-(2-(2,6-dioxopiperidin-3-yl)-1-oxoisoindolin-5-yl)-5-methoxynicotinonitrile] | ≥ 10 | 0.14 |
| CN(C)C(=O)c1c(-c2ccc3c(c2)CN(C2CCC(=O)NC2=O)C3=O)nc(N)c2ccccc12 (centres unmarked) [Example 130, 1-amino-3-[2-(2,6-dioxopiperidin-3-yl)-1-oxo-2,3-dihydro-1H-isoindol-5-yl]-N,N-dimethylisoquinoline-4-carboxamide] | ≥ 20 | 0.45 |
| O=C1CCC(N2Cc3cc(-c4nccc5ncccc45)ccc3C2=O)C(=O)N1 (centres unmarked) [Example 100, 3-(5-(1,6-naphthyridin-5-yl)-1-oxoisoindolin-2-yl)piperidine-2,6-dione] | ≥ 20 | 0.21 |
| CCOc1c(-c2ccc3c(c2)CN([C@H]2CCC(=O)NC2=O)C3=O)nc(N)c2ccccc12 [Example 84, (3S)-3-[5-(1-amino-4-ethoxyisoquinolin-3-yl)-1-oxo-2,3-dihydro-1H-isoindol-2-yl]piperidine-2,6-dione] | ≥ 20 | 0.003 |
| N#CCc1ccnc(-c2ccc3c(c2)CN(C2CCC(=O)NC2=O)C3=O)c1 (centres unmarked) [Example 111, 2-(2-(2-(2,6-dioxopiperidin-3-yl)-1-oxoisoindolin-5-yl)pyridin-4-yl)acetonitrile] | ≥ 10 | 0.93 |
| O=C1CCC(N2Cc3cc(-c4cc5ccccc5c(C5CC5)n4)ccc3C2=O)C(=O)N1 (centres unmarked) [Example 89, 3-(5-(1-cyclopropylisoquinolin-3-yl)-1-oxoisoindolin-2-yl)piperidine-2,6-dione] | ≥ 20 | 2.2 |
| Nc1ccc(C2CC2)c(-c2ccc3c(c2)CN(C2CCC(=O)NC2=O)C3=O)n1 (centres unmarked) [Example 132, 3-[5-(6-amino-3-cyclopropylpyridin-2-yl)-1-oxo-2,3-dihydro-1H-isoindol-2-yl]piperidine-2,6-dione] | ≥ 20 | 0.02 |
| Nc1cc(C(F)(F)F)cc(-c2ccc3c(c2)CN(C2CCC(=O)NC2=O)C3=O)n1 (centres unmarked) [Example 163, 3-(5-(6-amino-4-(trifluoromethyl)pyridin-2-yl)-1-oxoisoindolin-2-yl)piperidine-2,6-dione] | ≥ 20 | 0.09 |
| Nc1cc(CO)cc(-c2ccc3c(c2)CN(C2CCC(=O)NC2=O)C3=O)n1 (centres unmarked) [Example 112, 3-(5-(6-amino-4-(hydroxymethyl)pyridin-2-yl)-1-oxoisoindolin-2-yl)piperidine-2,6-dione] | ≥ 10 | 0.42 |
| CC(=O)Nc1nc(-c2ccc3c(c2)CN(C2CCC(=O)NC2=O)C3=O)cc(C)c1C (centres unmarked) [Example 167, N-(6-(2-(2,6-dioxopiperidin-3-yl)-1-oxoisoindolin-5-yl)-3,4-dimethylpyridin-2-yl) acetamide] | > 10 | 0.05 |
| O=C1CCC(N2Cc3cc(-c4nccc5ccccc45)ccc3C2=O)C(=O)N1 (centres unmarked) [Example 66, 3-[5-(isoquinolin-1-yl)-1-oxo-2,3-dihydro-1H-isoindol-2-yl]piperidine-2,6-dione] | 0.025 | 0.006 |
| CCN(CC)c1nc(-c2ccc3c(c2)CN(C2CCC(=O)NC2=O)C3=O)nc2ccc(Cl)cc12 (centres unmarked) [Example 15, 3-{5-[6-chloro-4-(diethylamino)quinazolin-2-yl]-1-oxo-2,3-dihydro-1H-isoindol-2-yl}piperidine-2,6-dione] | > 20 | > 20 |
| CN(C)c1cnc(-c2ccc3c(c2)CN(C2CCC(=O)NC2=O)C3=O)c2cc(Cl)ccc12 (centres unmarked) [Example 129, 3-{5-[7-chloro-4-(dimethylamino)isoquinolin-1-yl]-1-oxo-2,3-dihydro-1H-isoindol-2-yl}piperidine-2,6-dione] | 0.09 | 0.01 |
| Nc1ccc2c(-c3ccc4c(c3)CN(C3CCC(=O)NC3=O)C4=O)nccc2c1 (centres unmarked) [Example 133, 3-[5-(6-aminoisoquinolin-1-yl)-1-oxo-2,3-dihydro-1H-isoindol-2-yl]piperidine-2,6-dione] | ≥ 20 | 0.01 |
| CN1CCc2nc(-c3ccc4c(c3)CN(C3CCC(=O)NC3=O)C4=O)ccc2C1=O (centres unmarked) [Example 92, 3-(5-(6-methyl-5-oxo-5,6,7,8-tetrahydro-1,6-naphthyridin-2-yl)-1-oxoisoindolin-2-yl)piperidine-2,6-dione] | ≥ 20 | 1.5 |
